Test results: patent publication US12209102B2, “Heterocyclic compounds and uses thereof” (Kumquat Biosciences Inc., priority 2022, dated 2025)

Key:
K-Ras WT = target: T1, K-Ras WT (Homo sapiens, UniProt P01116); assay: HTRF resonance energy transfer assay, K-Ras WT / SOS1 interaction; assay type: biochemical; conditions: HTRF assay of Example 5; read-out: IC50 against K-Ras WT
T1 construct: made in house; host or cells: E. coli BL21 (DE3)
Procedure, shortened: (§1)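 Buffer about 5 mM HEPES pH 7.4 with ~150 mM NaCl, ~1 mM DTT, 0.05% BSA, 0.0025% (v/v) Igepal. Protein constructs used at molarity matching the IC50 range studied (e.g. ~500 nM). FRET between tagged K-Ras and hSOS1 measured after short incubation.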

K-Ras G12V = target: T2, K-Ras G12V (Homo sapiens, UniProt P01116, G12V); assay: HTRF resonance energy transfer assay, K-Ras G12V / SOS1 interaction; assay type: biochemical; conditions: HTRF assay of Example 5; read-out: IC50 against K-Ras G12V
T2 construct: made in house; host or cells: E. coli BL21 (DE3)
Procedure, shortened: as §1

SW620 cells = assay: Ras cellular assay, growth of cells with K-Ras G12V mutation (CellTiter-Glo); assay type: cell-based; conditions: Homo sapiens, SW-620; cell growth, Example 9, G12V mutation; read-out: IC50 against SW620 cells
Procedure, shortened: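 IC50 values came from a four-parameter fit of CellTiter-Glo viability, read roughly 6 days after dosing with e.g. a 10-point threefold dilution series. G12V-mutant SW620 cells (e.g. 800 per well) had been plated the previous day in RPMI-1640/10% heat-inactivated FBS, on tissue culture-treated or ultra-low attachment plates.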

K-Ras G12D = target: T3, K-Ras G12D (Homo sapiens, UniProt P01116, G12D); assay: HTRF resonance energy transfer assay, K-Ras G12D / SOS1 interaction; assay type: biochemical; conditions: HTRF assay of Example 5; read-out: IC50 against K-Ras G12D
T3 construct: made in house; host or cells: E. coli BL21 (DE3)
Procedure, shortened: as §1

GP2D cells = assay: Ras cellular assay, growth of cells with K-Ras G12D mutation (CellTiter-Glo); assay type: cell-based; conditions: cell growth, Example 9, G12D mutation, read-out: IC50 against GP2D cells
A549 cells = assay: Ras cellular assay, growth of cells with K-Ras G12S mutation (CellTiter-Glo); assay type: cell-based; conditions: Homo sapiens, cell growth, Example 9, G12S mutation, read-out: IC50 against A549 cells
Procedure, shortened: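 Growth inhibition IC50 values come from four-parameter fits of CellTiter-Glo luminescence, read about 6 days after compound addition. G12S-mutant A549 cells (e.g. 800/well, RPMI-1640 + 10% heat-inactivated FBS) were plated in tissue-culture-treated or ultra-low-attachment 384-well format. Dosing began the following day with serial dilutions, e.g. 10 points, 3-fold.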

K-Ras G12S = target: T4, K-Ras G12S (Homo sapiens, UniProt P01116, G12S); assay: HTRF resonance energy transfer assay, K-Ras G12S / SOS1 interaction; assay type: biochemical; conditions: HTRF assay of Example 5; read-out: IC50 against K-Ras G12S
T4 construct: made in house; host or cells: E. coli BL21 (DE3)
Procedure, shortened: as §1

T4 sequence (P01116 1-188 isoform P01116-2 G12S): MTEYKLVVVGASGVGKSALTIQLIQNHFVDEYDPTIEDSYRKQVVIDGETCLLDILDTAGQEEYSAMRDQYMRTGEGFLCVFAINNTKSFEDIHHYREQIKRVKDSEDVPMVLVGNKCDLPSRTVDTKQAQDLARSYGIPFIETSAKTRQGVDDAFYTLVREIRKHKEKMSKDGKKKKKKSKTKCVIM
T1 sequence (P01116 1-188 isoform P01116-2): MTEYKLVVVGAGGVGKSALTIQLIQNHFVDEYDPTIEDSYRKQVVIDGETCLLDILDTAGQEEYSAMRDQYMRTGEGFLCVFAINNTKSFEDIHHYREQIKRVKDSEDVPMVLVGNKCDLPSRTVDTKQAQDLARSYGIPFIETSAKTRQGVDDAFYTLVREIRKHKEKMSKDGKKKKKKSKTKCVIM
T3 sequence (P01116 1-188 isoform P01116-2 G12D): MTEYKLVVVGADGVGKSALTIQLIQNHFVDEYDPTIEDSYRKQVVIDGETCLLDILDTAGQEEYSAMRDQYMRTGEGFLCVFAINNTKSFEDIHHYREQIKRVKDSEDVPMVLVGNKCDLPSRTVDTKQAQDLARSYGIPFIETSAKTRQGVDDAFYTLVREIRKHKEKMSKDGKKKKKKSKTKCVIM
T2 sequence (P01116 1-188 isoform P01116-2 G12V): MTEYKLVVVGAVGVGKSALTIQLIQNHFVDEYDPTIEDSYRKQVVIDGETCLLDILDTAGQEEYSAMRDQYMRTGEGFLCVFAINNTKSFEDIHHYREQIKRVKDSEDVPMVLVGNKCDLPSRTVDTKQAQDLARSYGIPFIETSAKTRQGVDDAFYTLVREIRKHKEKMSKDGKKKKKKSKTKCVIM

Row | Structure (SMILES) | IC50 (K-Ras WT) [nM] | IC50 (K-Ras G12V) [nM] | IC50 (SW620 cells) [nM] | IC50 (K-Ras G12D) [nM] | IC50 (GP2D cells) [nM] | IC50 (A549 cells) [nM] | IC50 (K-Ras G12S) [nM]
1 | CN(C)C1(CN2CCOc3c(Cl)c(-c4ccc(F)c5sc(N)c(C#N)c45)c(F)c4nc(OC[C@@]56CCCN5C[C@H](F)C6)nc2c34)CCCC1 [Compound 1062, 2-amino-4-(8-chloro-4-((1-(dimethylamino)cyclopentyl)methyl)-10-fluoro-2-(((2R,7aS)-2-fluorotetrahydro-1H-pyrrolizin-7a(5H)-yl)methoxy)-5,6-dihydro-4H-[1,4]oxazepino[5,6,7-de]quinazolin-9-yl)-7-fluorobenzo[b]thiophene-3-carbonitrile] | < 100 | < 100 | < 5000 | < 100 | < 500 | < 5000 | < 100
2 | N#Cc1c(N)sc2c(F)ccc(-c3c(Cl)c4c5c(nc(OC[C@@]67CCCN6C[C@H](F)C7)nc5c3F)N(C3CCN(C(=O)C5CCO5)C3)CCO4)c12 (stereo partly drawn) [Compound 1064, 2-amino-4-(8-chloro-10-fluoro-2-(((2R,7aS)-2-fluorotetrahydro-1H-pyrrolizin-7a(5H)-yl)methoxy)-4-(1-(oxetane-2-carbonyl)pyrrolidin-3-yl)-5,6-dihydro-4H-[1,4]oxazepino[5,6,7-de]quinazolin-9-yl)-7-fluorobenzo[b]thiophene-3-carbonitrile] | < 100 | < 100 | < 5000 | < 100 | < 500 | < 5000 | < 100
3 | C[C@@H](O)[C@H]1COc2c(Cl)c(-c3ccc(F)c4sc(N)c(C#N)c34)c(F)c3nc(OC[C@@]45CCCN4C[C@H](F)C5)nc(c23)N1CC(F)F [Compound 1080, 2-amino-4-((5R)-8-chloro-4-(2,2-difluoroethyl)-10-fluoro-2-(((2R,7aS)-2-fluorotetrahydro-1H-pyrrolizin-7a(5H)-yl)methoxy)-5-((R)-1-hydroxyethyl)-5,6-dihydro-4H-[1,4]oxazepino[5,6,7-de]quinazolin-9-yl)-7-fluorobenzo[b]thiophene-3-carbonitrile] | < 100 | < 100 | < 5000 | < 100 | < 500 | < 5000 | < 100
4 | N#Cc1c(N)sc2c(F)ccc(-c3c(Cl)c4c5c(nc(OC[C@@]67CCCN6C[C@H](F)C7)nc5c3F)N([C@H]3CCN(C=O)C3)CCO4)c12 [Compound 1095, 2-amino-4-(8-chloro-10-fluoro-2-(((2R,7aS)-2-fluorotetrahydro-1H-pyrrolizin-7a(5H)-yl)methoxy)-4-((S)-1-formylpyrrolidin-3-yl)-5,6-dihydro-4H-[1,4]oxazepino[5,6,7-de]quinazolin-9-yl)-7-fluorobenzo[b]thiophene-3-carbonitrile] | < 100 | < 100 | < 5000 | < 100 | < 500 | < 5000 | < 100
5 | CC(F)(F)CN1CCOc2c(Cl)c(-c3ccc(F)c4sc(N)c(C#N)c34)c(F)c3nc(OC[C@@]45CCCN4C[C@H](F)C5)nc1c23 [Compound 1108, 2-amino-4-(8-chloro-4-(2,2-difluoropropyl)-10-fluoro-2-(((2R,7aS)-2-fluorotetrahydro-1H-pyrrolizin-7a(5H)-yl)methoxy)-5,6-dihydro-4H-[1,4]oxazepino[5,6,7-de]quinazolin-9-yl)-7-fluorobenzo[b]thiophene-3-carbonitrile] | < 100 | < 100 | < 5000 | < 100 | < 500 | < 5000 | < 100
6 | CO[C@H](C)C(=O)N1CCC(N2CCOc3c(Cl)c(-c4ccc(F)c5sc(N)c(C#N)c45)c(F)c4nc(OC[C@@]56CCCN5C[C@H](F)C6)nc2c34)C1 (stereo partly drawn) [Compound 1110, 2-amino-4-(8-chloro-10-fluoro-2-(((2R,7aS)-2-fluorotetrahydro-1H-pyrrolizin-7a(5H)-yl)methoxy)-4-(1-((R)-2-methoxypropanoyl)pyrrolidin-3-yl)-5,6-dihydro-4H-[1,4]oxazepino[5,6,7-de]quinazolin-9-yl)-7-fluorobenzo[b]thiophene-3-carbonitrile] | < 100 | < 100 | < 5000 | < 100 | < 500 | < 5000 | < 100
7 | CN1c2nc(OC[C@@]34CCCN3C[C@H](F)C4)nc3c(F)c(-c4ccc(F)c5sc(N)c(C#N)c45)c(Cl)c(c23)OC[C@@H]1CN [Compound 1113, 2-amino-4-((5S)-5-(aminomethyl)-8-chloro-10-fluoro-2-(((2R,7aS)-2-fluorotetrahydro-1H-pyrrolizin-7a(5H)-yl)methoxy)-4-methyl-5,6-dihydro-4H-[1,4]oxazepino[5,6,7-de]quinazolin-9-yl)-7-fluorobenzo[b]thiophene-3-carbonitrile] | < 100 | < 100 | < 5000 | < 100 | < 500 | < 5000 | < 100
8 | N#Cc1c(N)sc2c(F)ccc(-c3c(Cl)c4c5c(nc(OC[C@@]67CCCN6C[C@H](F)C7)nc5c3F)N(C3CCC5(C3)CN(C(=O)CC3COC3)C5)CCO4)c12 (stereo partly drawn) [Compound 1115, 2-amino-4-(8-chloro-10-fluoro-2-(((2R,7aS)-2-fluorotetrahydro-1H-pyrrolizin-7a(5H)-yl)methoxy)-4-(2-(2-(oxetan-3-yl)acetyl)-2-azaspiro[3.4]octan-6-yl)-5,6-dihydro-4H-[1,4]oxazepino[5,6,7-de]quinazolin-9-yl)-7-fluorobenzo[b]thiophene-3-carbonitrile] | < 100 | < 100 | < 5000 | < 100 | < 500 | < 5000 | < 100
9 | CN(C=O)C1CC(N2CCOc3c(Cl)c(-c4ccc(F)c5sc(N)c(C#N)c45)c(F)c4nc(OC[C@@]56CCCN5C[C@H](F)C6)nc2c34)C1 (stereo partly drawn) [Compound 1119, N-(3-(9-(2-amino-3-cyano-7-fluorobenzo[b]thiophen-4-yl)-8-chloro-10-fluoro-2-(((2R,7aS)-2-fluorotetrahydro-1H-pyrrolizin-7a(5H)-yl)methoxy)-5,6-dihydro-4H-[1,4]oxazepino[5,6,7-de]quinazolin-4-yl)cyclobutyl)-N-methylformamide] | < 100 | < 100 | < 5000 | < 100 | < 500 | < 5000 | < 100
10 | N#Cc1c(N)sc2c(F)ccc(-c3c(Cl)c4c5c(nc(OC[C@@]67CCCN6C[C@H](F)C7)nc5c3F)N(C3CCN(C(=O)CC5COC5)C3)CCO4)c12 (stereo partly drawn) [Compound 1126, 2-amino-4-(8-chloro-10-fluoro-2-(((2R,7aS)-2-fluorotetrahydro-1H-pyrrolizin-7a(5H)-yl)methoxy)-4-(1-(2-(oxetan-3-yl)acetyl)pyrrolidin-3-yl)-5,6-dihydro-4H-[1,4]oxazepino[5,6,7-de]quinazolin-9-yl)-7-fluorobenzo[b]thiophene-3-carbonitrile] | < 100 | < 100 | < 5000 | < 100 | < 500 | < 5000 | < 100
11 | CN(CCN1CCOc2c(Cl)c(-c3ccc(F)c4sc(N)c(C#N)c34)c(F)c3nc(OC[C@@]45CCCN4C[C@H](F)C5)nc1c23)C(=O)C(F)F [Compound 1127, N-(2-(9-(2-amino-3-cyano-7-fluorobenzo[b]thiophen-4-yl)-8-chloro-10-fluoro-2-(((2R,7aS)-2-fluorotetrahydro-1H-pyrrolizin-7a(5H)-yl)methoxy)-5,6-dihydro-4H-[1,4]oxazepino[5,6,7-de]quinazolin-4-yl)ethyl)-2,2-difluoro-N-methylacetamide] | < 100 | < 100 | < 5000 | < 100 | < 500 | < 5000 | < 100
12 | C[C@@H]1CN(CC(F)F)c2nc(OC[C@@]34CCCN3C[C@H](F)C4)nc3c(F)c(-c4ccc(F)c5sc(N)c(C#N)c45)c(Cl)c(c23)O1 [Compound 1133, 2-amino-4-((6R)-8-chloro-4-(2,2-difluoroethyl)-10-fluoro-2-(((2R,7aS)-2-fluorotetrahydro-1H-pyrrolizin-7a(5H)-yl)methoxy)-6-methyl-5,6-dihydro-4H-[1,4]oxazepino[5,6,7-de]quinazolin-9-yl)-7-fluorobenzo[b]thiophene-3-carbonitrile] | < 100 | < 100 | < 5000 | < 100 | < 500 | < 5000 | < 100
